From patent publication US20090317474A1, “USE OF POLYETHYLENE GLYCOL IN INFLAMMATION RELATED TOPICAL DISORDERS OR DISEASES AND WOUND HEALING” (Flen Pharma N.V., priority 2006, published 2009)

Key:
VEGF [1] = experiment: VEGF expression by fibroblasts (ELISA); type: cell-based, murine; conditions: overnight
proMMP-9 = proMMP-9 secretion by J774 macrophages challenged with heat inactivated E. coli; type: cell-based, murine
Experimental: Macrophage cells were pre-conditioned for 30 min. with varying concentrations of PEG400 (0.31-10% w/w) and then challenged with heat inactivated E. coli bacteria. Next, cells were further incubated overnight. The supernatant of cells was analyzed for proMMP-9 according to the manufacturer's indications (R&D systems, Abingdon, UK).

IL-6 [2] = experiment: IL-6 expression by J774 macrophages after heat inactivated E. coli stimulation; type: cell-based, murine; conditions: J774 cells, with vs without PEG
Experimental: The cells were cultured with or without PEG (PEG600 diacid) The expression of IL-6 is lowered by about 30% when PEG is added.

IL-6 [3] = experiment: IL-6 secretion by LPS-challenged J774 macrophages incubated with hydrogels; type: cell-based, murine
Experimental: (§1) J774 macrophages were pre-conditioned for 30 min. with the gels and were then challenged with 100 ng/ml LPS. 3T3 cells were not challenged with bacteria. Next, the murine macrophage J774 and murine fibroblast 3T3 cells were incubated with the gels for 16 h at 37° C., 5% CO2. Hereafter, the medium was collected, centrifuged at 14,000 rpm during 20 min to remove particulate material and assayed for the indicated secreted proteins. Results are the mean of two independent experiments and are expressed as percentages of the control experiment.
(§2) A hydrogel was made by dissolving 2 g Kelset (Na^+—Ca^++ alginate) and 5 g PEG400 in a final volume of 100 ml growth medium [DMEM high glucose, 10% FCS, 4 mM L-Glutamine, antibiotics]. This mixture was further diluted with an additional 100 ml of growth medium to lower the viscosity of the solutions. The final concentration of PEG400 was 2.5%.
(§3) A hydrogel was made by dissolving 1 g Carbopol (polyacrylate), 5 g PEG400, 2.1 g Arginine and 3 g PCL (cetearyl octanoate) in a total volume of 100 ml growth medium [DMEM(high glucose), 10% FCS, 4 mM L-Glutamine, antibiotics]. This mixture was further diluted with an additional 100 ml of growth medium to lower the viscosity of the solutions. Cultures of murine macrophages J774 were used. The final concentration of PEG400 in contact with the cells was 2.5%. A similar solution without PEG400 was used as control.
(§4) A hydrogel was made by dissolving 3 g CMC ([…]), and 5 g PEG400 in a final volume of 100 ml growth medium [DMEM(high glucose), 10% FCS/4 mM L-Glutamine, antibiotics]. This mixture was further diluted with an additional 100 ml of growth medium to lower the viscosity of the solutions. Cultures of murine macrophages J774 were used. The final concentration of PEG400 was 2.5%. A similar solution without PEG400 was used as control.

HaCat keratinocytes = experiment: Toxicity of PEG on cultivated cells (tetrazolium cell survival); type: cell-based
Experimental: (§5) Cells were grown in DMEM (3T3 fibroblasts and HaCat keratinocytes) or in RPMI1640 (J774 macrophages). Both media were supplemented with heat inactivated 10% Fetal Calf Serum (Sigma), 2 mM L-Glutamine (Sigma) and antibiotics (Sigma). Cells were seeded subconfluent in 96 well plates and contacted for about 16 hours with PEG test compounds which were dissolved in growth media (expressed as w/w end concentrations).
(§6) Cell survival was assayed by the conversion of soluble tetrazolium salt into an insoluble and pink colored formazan (absorption measured at 570 nm).
(§7) Cells were incubated overnight with varying concentrations of PEG 400 (0.31-10% w/w). From 5% onwards, PEG has a cytotoxic effect on in vitro cultivated cells, especially on keratinocytes (FIG. 1A) and on macrophages (FIG. 1B), and to a lesser extent on fibroblasts (FIG. 1C).

VEGF [4] = experiment: VEGF expression by fibroblast cells (3T3), comparison of humectants; type: cell-based, murine; conditions: 3T3 fibroblast cells
Source text: (§8) The expression of VEGF upon administration of PEG and/or other humectants was investigated on vascular endothelial cells (SVEC) and on fibroblast cells (3T3). The beneficial role of VEGF expression in the healing of ischemic wounds is described in Corrall et al. (1999) Arch. Surg. 134, 200-205.

Collagen type III = experiment: Collagen III expression by 3T3 fibroblast cells; type: cell-based, murine; conditions: 3T3 cells
Source text: This increase of collagen III expression was significant compared to control.

IL-6 [5] = experiment: IL-6 expression in 3T3 cells incubated with hydrogel; type: cell-based, murine; conditions: Na+-Ca++ alginate gel with 2.5% PEG400 vs gel without PEG400, 16 h
Experimental: as §1, §2
(§9) A similar solution without PEG400 was used as control.

VEGF [6] = experiment: VEGF expression by vascular endothelial cells (SVEC); type: cell-based
Source text: as §8

pro-MMP9 = pro-MMP9 secretion by LPS-challenged J774 macrophages incubated with hydrogels; type: cell-based, murine
Experimental: as §1, §2, §3, §4

VEGF [7] = experiment: VEGF expression in 3T3 cells incubated with hydrogel; type: cell-based, murine; conditions: Na+-Ca++ alginate gel with 2.5% PEG400 vs gel without PEG400, 16 h
Experimental: as §1, §2, §9

3T3 fibroblasts = experiment: Toxicity of PEG on cultivated cells (tetrazolium cell survival); type: cell-based, murine
Experimental: as §5, §6, §7

J774 macrophages = experiment: as above; type: cell-based, murine
Experimental: as §5, §6, §7

[8] = J774, alginate gel, 2.5% PEG400, 100 ng/ml LPS
[9] = J774, carboxymethylcellulose gel, 2.5% PEG400, 100 ng/ml LPS
[10] = J774, polyacrylate (Carbopol) gel, 2.5% PEG400, LPS
[11] = overnight incubation, PEG 400 0.31-10% w/w

PEG 600 diacid
VEGF expression (VEGF [1]; 3T3 fibroblasts, increasing amounts 0.078-0.625% w/w): influenced
pro-MMP9 expression (proMMP-9; J774 cells challenged with heat inactivated E. coli after 30 min pre-incubation): lowered
lowering of IL-6 expression (IL-6 [2]): about 30%

Polyethylene glycol [PEG 400]
secretion of IL-6 (IL-6 [3]; [8]): reduced
expression of IL-6 (IL-6 [3]; [9]): clearly reduced
expression of IL-6 (IL-6 [3]; [10]): reduced
effect on cell survival (HaCat keratinocytes; keratinocytes, concentrations below 5%): no detrimental effect
concentration from which PEG has a cytotoxic effect (HaCat keratinocytes; keratinocytes, overnight incubation, PEG 400 0.31-10% w/w): ≥ 5%
concentration from which PEG400 is cytotoxic (summary statement) (HaCat keratinocytes; summary of Example 1, cell type not specified): ≥ 5 % (w/w)
PEG400 concentration of maximum VEGF expression (VEGF [1]; fibroblasts, 0.31-10% w/w tested): 5%
VEGF expression (VEGF [1]; fibroblasts, PEG400 concentrations between 2% and 10%): increases
secretion of proMMP9 (proMMP-9; J774, PEG 400 concentration from about up to roughly 1% (w/w), 30 min pre-conditioning, heat inactivated E. coli, overnight): significantly reduced
VEGF expression compared with 4% propylene glycol and 4% glycerol (VEGF [4]): highest expression
collagen III expression compared with 4% propylene glycol and 4% glycerol (Collagen type III): highest expression
increase of collagen III expression compared to control (Collagen type III; 4%): significant
IL-6 expression (IL-6 [5]): decreased
VEGF expression compared with 4% propylene glycol and 4% glycerol (VEGF [6]): highest expression
secretion of pro-MMP9 (pro-MMP9; [8]): reduced
expression of pro-MMP9 (pro-MMP9; [9]): less reduced
expression of pro-MMP9 (pro-MMP9; [10]): reduced
VEGF expression (VEGF [7]): slightly increased
effect on cell survival (3T3 fibroblasts; concentrations below 5%): no detrimental effect
concentration from which PEG has a cytotoxic effect (3T3 fibroblasts; [11]): ≥ 5%
effect on cell survival (J774 macrophages; concentrations below 5%): no detrimental effect
concentration from which PEG has a cytotoxic effect (J774 macrophages; [11]): ≥ 5%
